# According to paper PMC7291858, “An Enhanced Variant Designed From DLP4 Cationic Peptide Against Staphylococcus aureus CVCC 546” (Frontiers in Microbiology, 2020):
# Peptide text beside a SMILES is read from it.
# Experiments:
# [1] = tested on: E. coli K88; assay: MIC, microtiter plate assay; assay type: cell-based, Escherichia coli; conditions: 37°C, 16∼20 h, triplicate
# Method: (§1) The minimal inhibitory concentration (MIC) was evaluated by a microtiter plate assay ([Wiegand et al., 2008]). Serial 2-fold dilutions of test peptides were placed into a 96-well plate containing identical bacterial inoculum and incubated at 37°C for 16∼20 h. Vancomycin was used as antibiotic control. The MIC value was defined as the lowest peptide concentration where no visible growth occurred. All tests were made in triplicate.
# [2] = tested on: S. aureus CVCC 546; assay: Mouse thigh infection model, CFU in thigh muscle; assay type: in vivo, mouse (female CD-1); conditions: 10 mg/kg single i.p. dose 2 h post-infection, read 24 h post-infection, n = 6
# Method: (§2) Mouse experiments were carried out at Gene Engineering Laboratory, Feed Research Institute of Chinese Academy of Agricultural Sciences (CAAS) and complied with institutional animal care and use policies and procedures (AEC-CAAS-20090609). All animal studies were performed with female CD-1 mice, 6∼7 weeks old.
# (§3) S. aureus CVCC 546 in the exponential phase were resuspended in MHB and adjusted to 1 × 10^8 CFU/mL, a 0.1-mL inoculum was injected into the right thighs of mice. At 2 h post-infection, mice (n = 6) were administered intraperitoneally (i.p.) with peptides at 2.5, 5, or 10 mg/kg. Mice raised without any treatment, or treated with PBS, 10 mg/kg DLP4, or vancomycin were used as the blank and negative and positive controls, respectively. At 24 h post-infection, peripheral blood was collected and serum was separated for cytokine levels analysis by using enzyme-linked immunosorbent assay (ELISA) kit (R&D systems, United States). Mice were euthanized, the right thighs were aseptically removed and processed for colonies counting ([Ling et al., 2015]).
# [3] = tested on: mouse erythrocytes; assay: Hemolytic activity; assay type: cell-based; conditions: 128 μg/mL, 8% (v/v) mouse erythrocytes in PBS, 1 h, 37°C, absorbance 576 nm, n = 3
# Method: Hemolytic activity of peptides was evaluated with fresh mouse erythrocytes. Briefly, fresh mouse erythrocytes were collected, washed, and resuspended to a concentration of 8% (v/v) in PBS. Then, an aliquot of erythrocyte solution was added to 96-well plates containing an equal volume of peptide solution (1∼256 μg/mL) and was incubated for 1 h at 37°C. The erythrocyte suspension treated with 0.1% Triton X-100 and left untreated was employed as positive and negative controls, respectively. After centrifugation at 2000 rpm for 5 min, the supernatant was measured using a microplate reader at 576 nm. The percent hemolysis was calculated using the following formula: Percenthemolysis = [(A − A0)/(A100 − A0)] × 100%, where A, A100, and A0 represent the absorbance of the peptide sample and positive and negative controls, respectively.
# [4] = tested on: Gram-negative bacteria; assay: MIC, summary over Gram-negative strains; assay type: cell-based; conditions: E. coli and Salmonella strains of Table 2
# Method: as §1
# [5] = tested on: S. aureus CVCC 546; assay: Potassium ion (K+) leakage; assay type: cell-based, Staphylococcus aureus; conditions: 1 × MIC, treated for 150 min, 0.9% saline, 10^8 CFU/mL, ICP, n = 3
# Method: To further investigate the effects of peptides on membrane integrity, K^+ leakage determination was carried out as previously described ([Miao et al., 2016]). Briefly, S. aureus CVCC 546 cells were centrifuged, washed, and resuspended in 0.9% sterile saline. The cell suspension (10^8 CFU/mL) was treated with peptides at 1 × MIC. Cells untreated and treated with DLP4 or nisin were used as blank and positive controls. At time intervals of 30, 60, 90, 120, and 150 min, the suspensions were centrifuged at 12000 rpm for 5 min. The supernatants were then subjected to measurement by Agilent inductively coupled plasma optical emission (ICP-OES).
# [6] = tested on: S. aureus CVCC 546; assay: Post-antibiotic effect (PAE); assay type: cell-based, Staphylococcus aureus; conditions: 2 × MIC, 2 h exposure, mean ± SD, n = 3
# Method: The PAE was determined by exposing S. aureus cells to antimicrobial agent at 1×, 2×, or 4 × MIC for 2 h. After drug removal by dilution, the bacterial culture was incubated at 37°C and 250 rpm. An aliquot of samples (50 μL) were taken for CFU counts at different time intervals until bacterial cultures became turbid. Bacteria treated with DLP4 or vancomycin and left without treatment were used as the positive and blank controls, respectively. The PAE was calculated using the following formula: PAE = T − C, where T is the time for the CFU counts to increase by 10-fold above the count observed immediately after drug removal, and C is the corresponding time for the untreated control ([Oh et al., 2019]).
# [7] = tested on: mouse macrophage RAW 264.7; assay: Cytotoxicity, MTT assay; assay type: cell-based; conditions: 256 μg/mL, RAW 264.7, MTT, n = 4
# Method: The cytotoxicity of peptides toward mouse macrophage RAW 264.7 was evaluated by the MTT assay as described previously ([Wang X. et al., 2018]).
# [8] = tested on: Escherichia coli ATCC 25922; assay: MIC, microtiter plate assay; assay type: cell-based; conditions: 37°C, 16∼20 h, triplicate
# Method: as §1
# [9] = tested on: Salmonella pullorum CVCC 533; assay: MIC, microtiter plate assay; assay type: cell-based; conditions: 37°C, 16∼20 h, triplicate
# Method: as §1
# [10] = tested on: Streptococcus pneumoniae CVCC 2350; assay: MIC, microtiter plate assay; assay type: cell-based; conditions: 37°C, 16∼20 h, triplicate
# Method: as §1
# [11] = tested on: S. aureus ATCC 43300; assay type: cell-based, Staphylococcus aureus; conditions: microtiter, serial 2-fold dilutions, 37°C, 16∼20 h, triplicate; – = no activity
# Outline: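 Broth microdilution format: peptides diluted 2-fold serially, same inoculum per well, incubated 16∼20 h at 37°C, with vancomycin as antibiotic control. Values are the lowest concentrations preventing visible growth, determined in triplicate.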
# [12] = tested on: S. aureus CVCC 546 gDNA; assay: Gel retardation assay of gDNA binding; parameters: species or system Staphylococcus aureus; conditions: 10 min incubation, 1% agarose gel, ratios 0-5 (w/w)
# Method: A gel retardation assay ([Zhao et al., 2019]) was utilized to analyze the binding of peptides to genomic DNA (gDNA) extracted from S. aureus CVCC 546 with TIANamp Bacteria DNA Kit (TIANGEN Biotech Co., Ltd., Beijing). The peptides were incubated for 10 min with gDNA at different ratios of 0–5.0 (w/w) and then loaded on 1% agarose gel for electrophoresis analysis.
# [13] = tested on: TNF-α; assay: Mouse thigh infection model, serum cytokine ELISA; assay type: in vivo, mouse (female CD-1); conditions: 10 mg/kg i.p., serum 24 h post-infection
# Method: as §2, §3
# [14] = tested on: IL-10; assay: Mouse thigh infection model, serum cytokine ELISA; assay type: in vivo, mouse (female CD-1); conditions: 10 mg/kg i.p., serum 24 h post-infection
# Method: as §2, §3
# [15] = tested on: IL-6; assay: Mouse thigh infection model, serum cytokine ELISA; assay type: in vivo, mouse (female CD-1); conditions: 10 mg/kg i.p., serum 24 h post-infection
# Method: as §2, §3
# [16] = tested on: S. suis CVCC 3928; assay: MIC, microtiter plate assay; assay type: cell-based, Streptococcus suis; conditions: 37°C, 16∼20 h, triplicate
# Method: as §1
smiles,measurement,setting,value
"CC[C@H](C)[C@@H]1NC(=O)[C@@H]2CSSC[C@@H](C(=O)N[C@@H](CCCNC(=N)N)C(=O)N[C@@H](CCCCN)C(=O)O)NC(=O)[C@H](CC(N)=O)NC(=O)[C@@H]3CSSC[C@H](NC(=O)[C@H](C)NC(=O)[C@H](C)NC(=O)[C@H](Cc4c[nH]cn4)NC(=O)CNC(=O)[C@H](C(C)C)NC(=O)[C@H](CCCCN)NC(=O)[C@H](Cc4ccccc4)NC(=O)[C@@H]4CCCN4C(=O)[C@H](CO)NC(=O)[C@H](CC(C)C)NC(=O)[C@H](CC(C)C)NC(=O)[C@H](CC(=O)O)NC(=O)[C@@H](NC(=O)[C@@H](NC(=O)[C@H](C)N)[C@@H](C)O)CSSC[C@H](NC(=O)[C@H](Cc4c[nH]c5ccccc45)NC(=O)CNC(=O)CNC(=O)[C@H](CCCNC(=N)N)NC(=O)[C@H](CCCCN)NC(=O)CNC(=O)[C@H](CCCNC(=N)N)NC(=O)[C@H](C)NC1=O)C(=O)N[C@@H](CC(=O)O)C(=O)NCC(=O)N[C@@H](CCCNC(=N)N)C(=O)N[C@@H](C)C(=O)N[C@@H](C(C)C)C(=O)N3)C(=O)N[C@@H](C)C(=O)N[C@@H](C)C(=O)N[C@@H](Cc1c[nH]cn1)C(=O)N2 [ID13] (HELM PEPTIDE1{A.T.C.D.L.L.S.P.F.K.V.G.H.A.A.C.A.A.H.C.I.A.R.G.K.R.G.G.W.C.D.G.R.A.V.C.N.C.R.K}$PEPTIDE1,PEPTIDE1,3:R3-30:R3|PEPTIDE1,PEPTIDE1,16:R3-36:R3|PEPTIDE1,PEPTIDE1,20:R3-38:R3$$$V2.0; N-terminus and C-terminus assumed)",MIC,[1],>30.50 µM
same,reduction of S. aureus in infected thigh muscles,[2],1.8 log10 (CFU/g)
same,hemolysis,[3],0.38%
same,activity against Gram-negative bacteria,[4],no activity
same,level of released K+,[5],0.81 mg/L
same,PAE,[6],12.78 ± 0.28 h
same,cell viability,[7],71.4%
same,MIC,[8],>30.50 µM
same,MIC,[9],>30.50 µM
same,MIC,[10],0.95 µM
same,A1 (MIC against S. aureus ATCC 43300),[11],4 µg/mL
same,peptide/gDNA mass ratio at which gDNA was completely blocked,[12],5
same,peptide/gDNA mass ratio at which migration of gDNA began to be retarded,[12],1
same,downregulation of serum level of TNF-α,[13],1123.30 pg/mL
same,downregulation of serum level of IL-10,[14],37.66 pg/mL
same,downregulation of serum level of IL-6,[15],750.02 pg/mL
same,MIC,[16],0.95 µM
